Source: patent US10732169B2, “Personalized healthcare P4 drug monitoring system and method” (eNano Health Limited, priority 2016, dated 2020)

Experiments:
[1] = LC/MS, all subjects, FIG. 15
Description: In a third illustrative example, the detection of a HIV drug in saliva is conducted according to the claimed invention. […] Sample analysis hardware includes chromatography and mass spectrometry functionality and can additionally include genetic sequencing functionality.

[2] = Keppra levels in dried spot saliva samples over time after taking the drug, LC/MS; type: in vivo; details: two separate days, FIG. 14
Description: FIGS. 9 to 14 further illustrate the detection of Keppra in saliva. Levetiracetam (Trade Name: Keppra), is a medication used to treat epilepsy. In the illustrative example, the saliva specimens are collected on 2 separate days. On each day, subject is asked to collect blood/saliva samples before taking Keppra (time=0 hour), and after taking the drug (time=1, 2, 4, 8 hours). Saliva samples are collected in both liquid and dried spot forms. Blood samples are collected in dried spot form and are stored at room temperature before transportation for analytical laboratory analysis using LC/MS.
FIG. 13 is a graphical representation of Keppra levels using dried saliva comparatively measured. Graphical representation 1301 illustrates the comparison of dried saliva spot samples over two separate days.
FIG. 14 is a graphical representation of Keppra levels using dried saliva comparatively measured. The half-life of Keppra is known to be 5-8 hours. […] Consequently, dried spot saliva samples reliably reflect clearance of Keppra from the body according to the claimed invention.

[3] = known value; cited from earlier work

Nc1nc(=O)n([C@@H]2CS[C@H](CO)O2)cc1F [FTC]
detection of drug fragment ion in saliva [1]: detection of the FTC fragment ion

CC[C@@H](C(N)=O)N1CCCC1=O [Keppra, Levetiracetam]
time after which Keppra level depleted by half [2]: 8 h | half-life [3]: 5 to 8 h
